According to patent US9226919B2, “Methods for dosing an orally active 1,2,4-oxadiazole” (PTC Therapeutics, Inc., priority 2006, dated 2016):

Assays:
CFTR = test: Transepithelial potential difference (TEPD) chloride conductance, Phase 2 cystic fibrosis study; format: in vivo, human; settings: 15 CF patients
Protocol: The measurement of transepithelial potential difference (TEPD), also known as nasal potential difference, provides a sensitive evaluation of sodium and chloride transport directly in secretory epithelial cells via assessment of transepithelial bioelectric properties (Knowles et al., 1981, N. Engl. J. Med. 305(25):1489-95; Knowles et al., 1995, Hum. Gene Ther. 6:445). TEPD is performed in each nostril using standardized techniques (Standaert et al., 2004, Ped. Pulm. 37:385-92). In the procedure, a small plastic catheter is used to assess electrical differences across the outer cell membrane of nasal mucosa cells in the nostril. TEPD values are expressed in millivolts, or mV. A chloride conductance equal to or more electrically negative than −5.0 mV is generally considered to be in the normal range. […] TEPD assessments can also be made on rectal epithelial cells and lower respiratory epithelial cells. Because of the role of the CFTR protein in transporting chloride ions across cell membranes, and because of the absence of this protein, cystic fibrosis patients have an abnormal TEPD chloride conductance. As an endpoint, TEPD has the advantage that it can detect chloride transport changes that are a quantitative integration of the presence, functional activity, and apical location of the CFTR in airway cells. Furthermore, it is a direct measure of CFTR activity that is not likely to be affected by supportive or palliative treatments for CF (with the possible exception of systemically administered aminoglycoside antibiotics). Of importance is evidence that TEPD values can correlate with the degree of pulmonary dysfunction and radiographic abnormality (Ho et al., 1997, Eur. Respir. J. 10(9):2018-22; Fajac et al., 1998, Eur. Respir. J 12(6):1295-300; Sermet-Gaudelus et al., 2005, Am. J. Respit. Crit. Care Med. 171(9):1026-1031). […] Under baseline conditions, TEPD-assessed chloride channel activity is very unlikely to normalize spontaneously in patients with CF; any observed improvements in TEPD-assessed chloride channel activity are expected to specifically denote pharmacological activity of CFTR-correcting therapies. […]
Clinical endpoints were evaluated using the procedures set forth above. […] Pulmonary tests, including FEV1, FVC and MEF25-75, were measured prior to treatment, on day −1 of Cycle 2, on day 13 or 14 of Cycle 1 and day 13 or 14 of Cycle 2 in the study being conducted in Israel and the same parameters were measured prior to treatment and on day 13 or 14 of Cycle 2 in the study being conducted in the United States. […]

[1] = Body weight, Phase 2 cystic fibrosis study; format: in vivo, human
Text: 3-[5-(2-Fluoro-phenyl)-[1,2,4]oxadiazol-3-yl]-benzoic acid was provided in a formulation described herein.
Statistically significant results and positive trends for secondary endpoints were also observed. In particular, although the trials were not been powered to detect statistical significant changes in secondary endpoints, statistically significant improvements from study entry to the end of the higher-dose treatment cycle in the patients' mean FEV1, FVC and weight were observed.

[2] = higher dose level (10, 10, 20 mg/kg TID, 14 days)
[3] = lower dose level (4, 4, 8 mg/kg TID, 14 days)

Compound: O=C(O)c1cccc(-c2noc(-c3ccccc3F)n2)c1 [3-[5-(2-fluoro-phenyl)-[1,2,4]oxadiazol-3-yl]-benzoic acid]
- Mean change in TEPD chloride conductance, best of nostrils (CFTR; [2]): −6.4 mV
- Mean change in TEPD chloride conductance, mean of both nostrils (CFTR; [2]): −4.4 mV
- Mean change in TEPD chloride conductance, best of nostrils (CFTR; [3]): −9.0 mV
- Mean change in TEPD chloride conductance, mean of both nostrils (CFTR; [3]): −6.7 mV
- Weight, End of Higher Dose Treatment ([1]; end of higher-dose cycle (10, 10, 20 mg/kg TID), study entry 58.3 kg): 59.0 kg
- Weight, Change ([1]; study entry to end of higher dose treatment): 0.7 kg
